“Also recorded” adds a separate entry of the source.
Columns and labels:
[1] = system: TNF-α, IL-6, IL-8, IL-1α and MCP-1; assay: LAMPS production of pro-inflammatory cytokines; assay type: cell-based, human; conditions: for Inflammatory cytokine production: LAMPS
Description: (§1) LAMPS model assembly and maintenance. […] The experimental setup workflow is described in the Supplement.

LAMPS models [2] = assay: LAMPS model functionality (albumin and blood urea nitrogen secretion); assay type: cell-based, human; conditions: 10-day time course, vs vehicle control, 10 μM OCA, 30 μM PGZ; for Albumin curves / Blood urea nitrogen curves: NAFLD disease media, 10 μM TGZ, Vorinostat 1.7 or 5 μM, AS601245 1 or 3 μM, pioglitazone + vorinostat combination
Description: (§2) LAMPS cell sources and cell culture. A single lot of selected cryopreserved primary human hepatocytes (lot #Hu1960) with >90% viability and re-plating efficiency post-thaw were purchased from ThermoFisher. A single lot of selected cryopreserved primary human liver sinusoidal endothelial cells (LSEC; lot #: HL160019) were purchased from LifeNet Health (formerly Samsara Sciences; Virginia Beach, VA.). The human monoblast cell line, THP-1, used to generate Kupffer cells, was purchased from ATCC (Rockville, MD). LX-2 human stellate cells were acquired from Sigma Millipore (Billerica, MA). The LX-2 cell is an immortalized human hepatic stellate cell that constitutively expresses key receptors regulating hepatic fibrosis, and proliferates in response to PDGF, a prominent mitogen contributing to liver fibrosis (Bonner 2004, Xu, Hui et al. 2005).
Primary human hepatocytes were thawed following the manufacturer's recommendations using Cryopreserved Hepatocyte Recovery Medium (CHRM; ThermoFisher) and were initially cultured in hepatocyte plating media (HPM) containing Williams E medium (11.5 mM glucose) supplemented with 5% fetal bovine serum, […] penicillin-streptomycin and 2 mM L-glutamine. For perfusion in LAMPS models, cells were maintained in normal fasting (NF), early metabolic syndrome (EMS), or late metabolic syndrome (LMS) media. The description of components of these media types is detailed in the Metabolic Syndrome Media section below. LSECs were thawed and expanded in endothelial cell basal medium-2 (EBM-2) supplemented with the endothelial growth medium-2 (EGM-2) supplement pack (Lonza; Alpharetta, GA; #CC-4176). THP-1 cells were cultured in suspension in RPMI-1640 medium (ThermoFisher) supplemented with 10% fetal bovine serum (FBS; ThermoFisher), 100 μg/mL penicillin streptomycin (ThermoFisher), and 2 mM L-glutamine (ThermoFisher). THP-1 cells were differentiated into mature macrophages by treatment with 200 ng/mL phorbol myristate acetate (Sigma Aldrich) for 48 h. Differentiated THP-1 monocytes release human tumor necrosis factor alpha (TNF-α) and interleukin-6 (IL-6) in response to LPS treatment, a condition reported to induce the immune mediated liver toxic response in in vitro models (Jang, Choi et al. 2006, Kostadinova, Boess et al. 2013). LX-2 cells were cultured in Dulbecco's Modified Eagle Medium (DMEM; ThermoFisher) supplemented with 2% FBS and 100 μg/mL penicillin streptomycin.
Metabolic syndrome media. We developed medias that were designed to create disease progression from Normal Fasting (NF) to early metabolic syndrome (EMS or NAFLD) and late metabolic syndrome (LMS or T2D) over a two-week period in the LAMPS platform (Mohammed 2021). For the studies described here, we used both NF and EMS media formulations. […] We then adjusted these components to reflect the pathophysiological conditions as described below (Alford, Bloodm et al. 1977, Kuhl 1977, Kim, Kim et al. 2000, Chitturi, Abeygunasekera et al. 2002, de Almeida, Cortez-Pinto et al. 2002, Valencia, Marin et al. 2002, Edgerton, Ramnanan et al. 2009, Winnick, An et al. 2009).
Early Metabolic Syndrome (EMS) Media: Early metabolic syndrome (EMS) medium was derived from the NF media formulation with the following modifications: 11.5 mM glucose, 10 nM insulin, […] glucagon, 200 μM sodium oleate and 100 μM palmitic acid (Sigma).
as §1

LAMPS models [3] = assay: LAMPS hepatocellular steatosis (LipidTOX labeling); assay type: cell-based, human; conditions: for Hepatocellular steatosis / lipid accumulation (LipidTOX intensity): NAFLD disease media, day 10, vs vehicle control, 10 μM TGZ, Vorinostat 1.7 or 5 μM, AS601245 1 or 3 μM, pioglitazone + vorinostat combination; for Effect on steatosis: LAMPS NAFLD/MAFLD model, summary statement
Protocol: as §1
Steatosis measurements. Steatosis measurements were performed using HCS LipidTOX Deep Red Neutral Lipid Stain (ThermoFisher) after completion of the experimental time course (Day 10) in LAMPS models as previously described (Lee-Montiel, George et al. 2017) and are outlined in detail in the Supplemental Methods section.

[4] = system: Pro-collagen 1A1 and TIMP-1; assay: LAMPS secretion of pro-fibrotic markers (ELISA); assay type: cell-based, human; conditions: for Effect on secreted pro-fibrotic markers / fibrosis: LAMPS NAFLD/MAFLD model, summary statement; for Decrease in secretion of the pro-fibrotic marker Pro-Col 1a1: 10 μM TGZ vs vehicle, decrease is not significant; for Decrease in secretion of the pro-fibrotic marker Pro-collagen 1a1: 30 μM PGZ vs vehicle, decrease not statistically significant
Description: as §1

LAMPS models [5] = assay: LAMPS cytotoxicity (lactate dehydrogenase secretion); conditions: for Lactate dehydrogenase curves: 10-day time course, vs vehicle control, 10 μM OCA, 30 μM PGZ, 10 μM TGZ
Protocol: LAMPS model assembly and maintenance. LAMPS studies were carried out as previously described (Vernetti, Senutovitch et al. 2016, Lee-Montiel, George et al. 2017, Miedel, Gavlock et al. 2019, Mohammed 2021) with modification to include the use of human primary liver sinusoidal endothelial cells (LSECs). A single chamber commercial microfluidic device (HAR-V single channel device, SCC-001, Nortis, Inc. Seattle, WA) was used for LAMPS studies. For all steps involving injection of media and/or cell suspensions into LAMPS devices, 100-150 μl per device was used to ensure complete filling of fluidic pathways, chamber and bubble traps. The percentages of hepatocytes, THP-1, LSEC, and LX-2 cells are consistent with the scaling used in our previously published models (Vernetti, Senutovitch et al. 2016, Lee-Montiel, George et al. 2017, Miedel, Gavlock et al. 2019, Mohammed 2021). For the studies described here, LAMPS models were set up and maintained for 10 days under flow.
Secretome measurements. Efflux media from LAMPS devices was collected on days 2,4,6,8, and 10 to measure albumin, blood urea nitrogen, and lactate dehydrogenase. […] The CytoTox 96 for lactate dehydrogenase (LDH) and the urea nitrogen test were purchased from Promega (Madison, WI) and Stanbio Laboratory (Boerne, TX), respectively. […] All efflux measurements were carried out according to the manufacturer's protocol and obtained as described previously (Vernetti, Senutovitch et al. 2016, Lee-Montiel, George et al. 2017, Li, George et al. 2018, Miedel, Gavlock et al. 2019).
LAMPS models were maintained for 10 days in MAFLD disease media containing either the indicated concentration of drug or DMSO vehicle control. We determined drug concentrations to test in LAMPS models guided by the CMap database and by cytotoxicity testing in primary hepatocytes (Table S8). […] We examined a panel of metrics to monitor disease-specific phenotypes including model functionality (albumin and blood urea nitrogen production) and cytotoxicity (lactate dehydrogenase secretion), hepatocellular steatosis (LipidTOX Lipid Stain from ThermoFisher Scientific labeling), stellate cell activation (α-smooth muscle actin staining), and the production of a panel of pro-inflammatory cytokines and fibrotic markers (Pro-collagen 1A1 and TIMP-1) (Mohammed et. al, 2021).

[6] = system: LX-2 human stellate cells; assay: LAMPS stellate cell activation (α-smooth muscle actin staining); assay type: cell-based; conditions: for Effect on stellate cell activation: LAMPS NAFLD/MAFLD model, summary statement; for Stellate cell activation (α-SMA intensity): LAMPS, 10 μM OCA, 30 μM PGZ
Description: as §2, §1
Stellate cell activation. Staining for LX-2 cell expression of α-smooth muscle actin (α-SMA) was performed after completion of the experimental time course (Day 10) in LAMPS models as previously described (Vernetti, Senutovitch et al. 2016, Li, George et al. 2018) and are outlined in detail in the Supplemental Methods section.

[7] = observational trial of adult males [Vega, G. L., et al. 2008]; cited from earlier work
[8] = NAFLD disease media, day 10, vs vehicle control, Vorinostat 1.7 or 5 μM, AS601245 1 or 3 μM, pioglitazone + vorinostat combination
[9] = LAMPS, NAFLD disease media, 10 days, vs vehicle, 10 μM OCA, 30 μM PGZ, 10 μM TGZ, Vorinostat 1.7 or 5 μM, pioglitazone + vorinostat combination
[10] = LAMPS, NAFLD disease media, 10 days, 10 μM OCA, 30 μM PGZ
[11] = NAFLD disease media, day 10, vs vehicle control, 10 μM TGZ, Vorinostat 1.7 or 5 μM, pioglitazone + vorinostat combination
[12] = LAMPS, EMS media, 10 days, 10 μM OCA
[13] = LAMPS, EMS media, 10 days, vs vehicle, 10 μM OCA, 30 μM PGZ, vorinostat 1.7 or 5 μM, pioglitazone 30 μM + vorinostat 1.7 or 5 μM
[14] = EMS media, day 10, vs vehicle, vorinostat 1.7 or 5 μM, pioglitazone 30 μM + vorinostat 1.7 or 5 μM
[15] = EMS media, vorinostat 1.7 or 5 μM, pioglitazone 30 μM + vorinostat 1.7 or 5 μM

N#CC(c1ccnc(NCCc2cccnc2)n1)c1nc2ccccc2s1 (stereo not shown) [AS601245]
Inflammatory cytokine production [1, 8]: dose-dependent increase | Albumin curves (LAMPS models [2]): no significant differences | Blood urea nitrogen curves (LAMPS models [2]): no significant differences | Hepatocellular steatosis / lipid accumulation (LipidTOX intensity) (LAMPS models [3]; LAMPS, 10 μM OCA, 30 μM PGZ): no effect

Cc1c(C)c2c(c(C)c1O)CCC(C)(COc1ccc(CC3SC(=O)NC3=O)cc1)O2 (stereo not shown) [TGZ, troglitazone]
Effect on secreted pro-fibrotic markers / fibrosis [4]: reduced steatosis but not fibrosis markers; also recorded: no significant effect | Secreted levels / production of TIMP-1 [4, 9]: no significant change | Decrease in secretion of the pro-fibrotic marker Pro-Col 1a1 [4, 10]: ~20% | Albumin curves (LAMPS models [2]): no significant differences | Blood urea nitrogen curves (LAMPS models [2]): no significant differences | Lactate dehydrogenase curves (LAMPS models [5]; NAFLD disease media): no significant differences | Effect on stellate cell activation [6]: reduced | Stellate cell activation (α-SMA intensity) [6, 11]: significant decrease | Effect on steatosis (LAMPS models [3]): reduced | Hepatocellular steatosis / lipid accumulation (LipidTOX intensity) (LAMPS models [3]; LAMPS, 10 μM OCA, 30 μM PGZ): significant decrease

CC[C@H]1[C@@H](O)[C@@H]2[C@H](CC[C@]3(C)[C@@H]([C@H](C)CCC(=O)O)CC[C@@H]23)[C@@]2(C)CC[C@@H](O)C[C@@H]12 [OCA, obeticholic acid]
Effect on secreted pro-fibrotic markers / fibrosis [4]: no significant effect | Decrease in secretion of the pro-fibrotic marker Pro-collagen 1a1 [4, 12]: ~20% | Decrease in secretion of the pro-fibrotic marker Pro-Col 1a1 [4, 10]: ~20% | Lactate dehydrogenase curves (LAMPS models [5]; NAFLD disease media): no significant differences

C[C@]12COC(=O)C[C@@H]1CC[C@@H]1[C@@H]2CC[C@@]2(C)[C@H]1CC[C@]2(C)O [oxandrolone]
Hepatic ketogenesis [7]: promoted hepatic ketogenesis

O=C(CCCCCCC(=O)Nc1ccccc1)NO [Vorinostat, suberoylanilide hydroxamic acid]
Effect on secreted pro-fibrotic markers / fibrosis [4]: robustly mitigated; also recorded: robustly reduced; also recorded: significant inhibition | Secreted levels / production of TIMP-1 [4, 13]: significant decrease | Secreted levels / production of the pro-fibrotic marker Pro-Col 1a1 [4, 13]: significant decrease | Secreted levels / production of TIMP-1 [4, 9]: significant decrease | Production of the pro-fibrotic marker pro-collagen 1a1 ([4]; LAMPS, NAFLD disease media, day 10, vs vehicle control, Vorinostat 1.7 or 5 μM, pioglitazone + vorinostat combination): significant decrease | Effect on inflammatory markers / inflammation ([1]; LAMPS NAFLD/MAFLD model, summary statement): robustly mitigated; also recorded: robustly reduced; also recorded: significant inhibition | Inflammatory cytokine production [1, 14]: significant decrease | Inflammatory cytokine production [1, 8]: significant decrease | Albumin secretion profiles (LAMPS models [2]; [15]): no significant differences | Blood urea nitrogen secretion profiles (LAMPS models [2]; [15]): no significant differences | Albumin curves (LAMPS models [2]): no significant differences | Blood urea nitrogen curves (LAMPS models [2]): no significant differences | LDH secretion (LAMPS models [5]; EMS media, days 8 and 10, 5 μM vorinostat vs vehicle control): significant decrease | LDH secretion (LAMPS models [5]; NAFLD disease media, days 8 and 10, 5 μM Vorinostat vs vehicle control): significant decrease | Effect on stellate cell activation [6]: robustly reduced | Stellate cell activation (α-SMA intensity) [6, 14]: significant decrease | Stellate cell activation (α-SMA intensity) [6, 11]: significant decrease | Effect on steatosis (LAMPS models [3]): without an impact; also recorded: without significant amelioration; also recorded: without an appreciable effect | Steatosis / lipid accumulation (LipidTOX intensity) (LAMPS models [3]; LAMPS, EMS media, day 10, vs vehicle, 10 μM OCA, 30 μM PGZ, vorinostat 1.7 or 5 μM, pioglitazone 30 μM + vorinostat 1.7 or 5 μM): no significant effect | Hepatocellular steatosis / lipid accumulation (LipidTOX intensity) (LAMPS models [3]; LAMPS, 10 μM OCA, 30 μM PGZ): no effect

CCc1ccc(CCOc2ccc(CC3SC(=O)NC3=O)cc2)nc1 (stereo not shown) [PGZ, pioglitazone]
Effect on secreted pro-fibrotic markers / fibrosis [4]: no significant effect | Decrease in secretion of the pro-fibrotic marker Pro-collagen 1a1 [4, 12]: ~20% | Decrease in secretion of the pro-fibrotic marker Pro-Col 1a1 [4, 10]: ~20% | Lactate dehydrogenase curves (LAMPS models [5]; NAFLD disease media): no significant differences

— patent US20250006331A1, “QUANTITATIVE SYSTEMS PHARMACOLOGY METHODS FOR IDENTIFYING THERAPEUTICS FOR DISEASE STATES” (UNIVERSITY OF PITTSBURGH-OF THE COMMONWEALTH SYSTEM OF …, priority 2021, published 2025)
